Legend:
[1] = Displacement of [3H]TCP from N-methyl D-aspartate receptor phencyclidine binding site in rat brain after 120 mins by liquid scintillation counting analysis; assay type: tissue-based
[2] = Binding affinity to rat opioid receptor after 120 mins by radioligand displacement assay
[3] = Displacement of [3H]nisoxetine from norepinephrine transporter in rat cerebral cortex after 120 mins by liquid scintillation counting analysis; assay type: tissue-based
[4] = target: Sodium-dependent serotonin transporter (Rattus norvegicus, UniProt P31652); test: Displacement of [3H]paroxetine from serotonin transporter in rat brainstem after 120 mins by liquid scintillation counting analysis; assay type: tissue-based
Sodium-dependent serotonin transporter, sequence (P31652 whole entry): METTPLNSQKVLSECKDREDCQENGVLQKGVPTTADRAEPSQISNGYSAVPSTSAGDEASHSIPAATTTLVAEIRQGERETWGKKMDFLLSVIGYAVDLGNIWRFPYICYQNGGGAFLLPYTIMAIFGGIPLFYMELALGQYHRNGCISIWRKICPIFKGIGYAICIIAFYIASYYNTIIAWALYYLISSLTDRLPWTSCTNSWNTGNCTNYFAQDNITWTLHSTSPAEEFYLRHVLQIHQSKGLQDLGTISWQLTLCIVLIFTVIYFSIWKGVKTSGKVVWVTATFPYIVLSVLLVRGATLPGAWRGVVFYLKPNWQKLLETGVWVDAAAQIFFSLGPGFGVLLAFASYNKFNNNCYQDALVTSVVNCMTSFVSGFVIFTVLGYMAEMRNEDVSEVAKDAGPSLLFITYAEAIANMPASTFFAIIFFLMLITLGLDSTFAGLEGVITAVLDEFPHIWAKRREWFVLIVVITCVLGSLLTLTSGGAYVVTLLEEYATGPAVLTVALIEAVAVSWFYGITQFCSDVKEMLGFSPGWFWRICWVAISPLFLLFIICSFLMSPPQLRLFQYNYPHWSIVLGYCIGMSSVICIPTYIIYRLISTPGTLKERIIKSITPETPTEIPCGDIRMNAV

D(2) dopamine receptor = D(2) dopamine receptor (Rattus norvegicus, UniProt P61169); test: Displacement of [3H](-)-sulpiride from dopamine D2 receptor in rat brain after 120 mins by liquid scintillation counting analysis; assay type: tissue-based
D(2) dopamine receptor, sequence (P61169 whole entry): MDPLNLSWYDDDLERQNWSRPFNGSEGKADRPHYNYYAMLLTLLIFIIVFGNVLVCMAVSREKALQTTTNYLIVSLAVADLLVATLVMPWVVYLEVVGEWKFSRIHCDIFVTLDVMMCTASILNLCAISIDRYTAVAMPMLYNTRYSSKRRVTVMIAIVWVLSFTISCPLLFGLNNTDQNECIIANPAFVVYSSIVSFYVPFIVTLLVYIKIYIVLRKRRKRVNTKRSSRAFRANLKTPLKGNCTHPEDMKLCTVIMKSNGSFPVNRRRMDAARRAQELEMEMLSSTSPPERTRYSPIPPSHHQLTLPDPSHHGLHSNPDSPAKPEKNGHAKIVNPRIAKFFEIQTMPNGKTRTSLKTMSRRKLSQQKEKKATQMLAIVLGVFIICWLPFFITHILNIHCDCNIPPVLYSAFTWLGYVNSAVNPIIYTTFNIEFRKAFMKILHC

[5] = target: 5-hydroxytryptamine receptor 2A (Rattus norvegicus, UniProt P14842); test: Displacement of [3H]ketanserin from 5-HT2 receptor in rat brain after 120 mins by liquid scintillation counting analysis; assay type: tissue-based
5-hydroxytryptamine receptor 2A, sequence (P14842 whole entry): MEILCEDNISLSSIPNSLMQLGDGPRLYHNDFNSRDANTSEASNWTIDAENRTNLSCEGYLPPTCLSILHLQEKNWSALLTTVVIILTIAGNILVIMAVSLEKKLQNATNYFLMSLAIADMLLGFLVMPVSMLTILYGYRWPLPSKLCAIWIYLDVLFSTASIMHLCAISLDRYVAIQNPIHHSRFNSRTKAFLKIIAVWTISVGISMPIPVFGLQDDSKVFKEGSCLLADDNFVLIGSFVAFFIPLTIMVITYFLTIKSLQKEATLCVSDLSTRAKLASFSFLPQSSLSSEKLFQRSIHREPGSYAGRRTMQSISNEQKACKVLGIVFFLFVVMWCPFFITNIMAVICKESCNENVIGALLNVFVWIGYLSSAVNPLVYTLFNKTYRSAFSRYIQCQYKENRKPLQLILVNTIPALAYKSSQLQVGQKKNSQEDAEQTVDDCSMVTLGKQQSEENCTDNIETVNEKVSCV

Rattus norvegicus [6] = species: Rattus norvegicus; test: Selectivity ratio of Ki for rat brain sigma1 receptor to Ki for rat striatum dopamine transporter; assay type: tissue-based
[7] = target: Sodium-dependent dopamine transporter (Rattus norvegicus, UniProt P23977); test: Displacement of [3H]WIN 35428 from dopamine transporter in rat striatum after 120 mins by liquid scintillation counting analysis
Sodium-dependent dopamine transporter, sequence (P23977 whole entry): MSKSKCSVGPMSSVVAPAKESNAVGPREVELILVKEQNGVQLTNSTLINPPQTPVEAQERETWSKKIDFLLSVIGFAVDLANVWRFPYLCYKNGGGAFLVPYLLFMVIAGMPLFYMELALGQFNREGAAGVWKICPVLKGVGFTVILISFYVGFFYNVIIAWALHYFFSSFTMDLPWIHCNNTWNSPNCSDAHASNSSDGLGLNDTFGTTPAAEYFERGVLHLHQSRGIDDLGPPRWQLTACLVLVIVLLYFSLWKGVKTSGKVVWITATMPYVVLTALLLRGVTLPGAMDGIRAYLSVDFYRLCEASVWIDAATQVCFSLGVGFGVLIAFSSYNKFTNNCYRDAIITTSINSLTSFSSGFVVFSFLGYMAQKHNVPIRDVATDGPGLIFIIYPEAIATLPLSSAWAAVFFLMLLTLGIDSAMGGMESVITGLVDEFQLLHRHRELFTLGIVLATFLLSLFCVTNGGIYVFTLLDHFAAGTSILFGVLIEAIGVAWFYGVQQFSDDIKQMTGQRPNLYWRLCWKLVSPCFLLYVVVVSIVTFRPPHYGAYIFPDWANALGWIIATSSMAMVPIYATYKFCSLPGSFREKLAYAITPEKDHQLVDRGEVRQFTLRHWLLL

Rattus norvegicus [8] = species: Rattus norvegicus; test: Selectivity ratio of Ki for rat brain sigma1 receptor to Ki for rat brain sigma2 receptor
[9] = Displacement of [3H]di-o-tolylguanidine from sigma2 receptor in rat brain after 120 mins by liquid scintillation counting analysis; assay type: tissue-based
[10] = target: Sigma non-opioid intracellular receptor 1 (Rattus norvegicus, UniProt Q9R0C9); test: Displacement of [3H](+)-pentazocine from sigma1 receptor in rat brain after 120 mins by liquid scintillation counting analysis; assay type: tissue-based
Sigma non-opioid intracellular receptor 1, sequence (Q9R0C9 whole entry): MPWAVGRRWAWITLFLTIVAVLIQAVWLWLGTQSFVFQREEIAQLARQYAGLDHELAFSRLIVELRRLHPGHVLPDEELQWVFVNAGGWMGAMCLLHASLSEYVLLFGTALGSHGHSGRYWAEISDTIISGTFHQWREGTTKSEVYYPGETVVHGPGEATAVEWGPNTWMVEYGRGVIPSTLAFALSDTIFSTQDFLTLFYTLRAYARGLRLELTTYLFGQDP

Row | Ki [1] [nM] | Ki [2] [nM] | Ki [3] [nM] | Ki [4] [nM] | Ki (D(2) dopamine receptor) [nM] | Ki [5] [nM] | Ratio Ki (Rattus norvegicus [6]) | Ki [7] [nM] | Ratio Ki (Rattus norvegicus [8]) | Ki [9] [nM] | Ki [10] [nM] | SMILES
1 | > 10000 | > 10000 | > 10000 | > 10000 | 940 | 1240 | 0.009 | 9150 | 16.7 | 4.9 |  | c1ccc(CCCN2CCN(c3ccccn3)CC2)cc1
2 | > 10000 | > 10000 | 1110 | 802 | 327 | 53 | 162 | 0.04 | 0.079 | 82.3 | 6.47 | Clc1cccc(N2CCN(CCc3ccccc3)CC2)c1
3 | > 10000 | > 10000 | > 10000 | 488 | 128 | 498 |  | > 10000 | 0.39 | 12.6 | 4.93 | Clc1cccc(N2CCN(CCCc3ccccc3)CC2)c1
4 | > 10000 | > 10000 | > 10000 | 1100 | 660 | 391 | 4.5e-05 | 2650 | 0.011 | 10.9 | 0.12 | Clc1ccc(N2CCN(CCCc3ccccc3)CC2)cc1
5 | > 10000 | 4600 | > 10000 | 409 | 77 | 952 | 0.0012 | 482 | 0.072 | 7.79 | 0.56 | Clc1ccccc1N1CCN(CCCc2ccccc2)CC1

Row | SMILES | Ki [1] [nM] | Ki [2] [nM] | Ki [3] [nM] | Ki [4] [nM] | Ki (D(2) dopamine receptor) [nM] | Ki [5] [nM] | Ratio Ki (Rattus norvegicus [6]) | Ki [7] [nM] | Ratio Ki (Rattus norvegicus [8]) | Ki [9] [nM] | Ki [10] [nM]
6 | Clc1ccccc1N1CCN(CCc2ccccc2)CC1 | > 10000 | 4830 | 790 | > 10000 | 67 | 484 | 1.15 | 0.13 | 0.003 | 56.3 | 0.15
7 | Clc1ccc(N2CCN(CCc3ccccc3)CC2)cc1 | > 10000 | > 10000 | > 10000 | 372 | 834 | 518 | 0.31 | 6 | 0.056 | 33.3 | 1.85
